pIC50: −log10 of the molar value. Values after ≈ are worked out from the molar mass of the structure shown. Where two headings read alike, the source gives them in different places.
Experiments:
physchem = conditions: pH 7.4, aqueous buffer, kinetic from dmso stock
MA9-NRas cells = assay: NRAS IC50 (MA9-NRas cells); assay type: cell-based
in vivo = conditions: NRG/NRGS, mouse, ip, 30 mg/kg
[1] = Homo sapiens, read-out: NRAS IC50
[2] = Homo sapiens; read-out: NRAS IC50

c1cc(NC2CNC2)nc(-c2cnc3ccccn23)c1 [Compound I-12, N-(azetidin-3-yl)-6-(imidazo[1,2-a]pyridin-3-yl)pyridin-2-amine]
solubility (physchem): > 39 µg/mL
Stability (rat): >30.0 min

Clc1ccc2ncc(-c3cccc(NC4CCNC4)n3)n2c1 (stereo not drawn) [Compound I-16, 6-(6-chloroimidazo[1,2-a]pyridin-3-yl)-N-(pyrrolidin-3-yl)pyridin-2-amine]
pIC50 (MA9-NRas cells; [1]): 5.75
solubility (physchem): > 46 µg/mL
Stability (rat): 25.6 min

COc1cc2ncc(-c3cccc(NC4CCNC4)n3)n2cc1Cl (stereo not drawn) [Compound I-21, 6-(6-chloro-7-methoxyimidazo[1,2-a]pyridin-3-yl)-N-(pyrrolidin-3-yl)pyridin-2-amine]
solubility (physchem): 7.7 µg/mL (≈ 22.4 µM)
Stability (rat): 27 min

COc1cc2ncc(-c3cccc(NC4CCNC4)n3)n2cc1-c1cccnc1 (stereo not drawn) [Compound I-22, 6-(7-methoxy-6-(pyridin-3-yl)imidazo[1,2-a]pyridin-3-yl)-N-(pyrrolidin-3-yl)pyridin-2-amine]
solubility (physchem): 29 µg/mL (≈ 75 µM)
solubility kinetic (physchem): 29 µM (≈ 11.2 µg/mL)
AUC(0-inf) (in vivo): 4850 ng·h/mL
Cmax (in vivo): 1540 ng/mL
Tmax (in vivo): 30 min

COc1cc2ncc(-c3cccc(NC4CCNC4)n3)n2cc1-c1ccncc1 (stereo not drawn) [Compound I-23, 6-(7-methoxy-6-(pyridin-4-yl)imidazo[1,2-a]pyridin-3-yl)-N-(pyrrolidin-3-yl)pyridin-2-amine]
pIC50 (MA9-NRas cells; [1]): 5.74
solubility (physchem): 11.6 µg/mL (≈ 30 µM)
Stability (rat): >30.0 min

COc1cc2ncc(-c3cccc(NC4CCNC4)n3)n2cc1-c1c(C)n[nH]c1C (stereo not drawn) [Compound I-25, 6-(6-(3,5-dimethyl-1H-pyrazol-4-yl)-7-methoxyimidazo[1,2-a]pyridin-3-yl)-N-(pyrrolidin-3-yl)pyridin-2-amine]
pIC50 (MA9-NRas cells; [2]): 4.80
solubility (physchem): > 60 µg/mL
Stability (rat): >30.0 min

COc1cc2ncc(-c3cccc(NC4CCNC4)n3)n2cc1-c1cnn(CCN2CCOCC2)c1 (stereo not drawn) [Compound I-26]
pIC50 (MA9-NRas cells; [1]): 4.80
solubility (physchem): > 72 µg/mL
Stability (rat): >30.0 min

COc1cc2ncc(-c3cccc(NC4CCNC4)n3)n2cc1-c1cc[nH]c1 (stereo not drawn) [Compound I-27, 6-(7-methoxy-6-(1H-pyrrol-3-yl)imidazo[1,2-a]pyridin-3-yl)-N-(pyrrolidin-3-yl)pyridin-2-amine]
pIC50 (MA9-NRas cells; [1]): 5.35
solubility (physchem): 34.3 µg/mL (≈ 91.6 µM)
Stability (rat): >30.0 min

COc1cc2ncc(-c3cccc(NC4CCNC4)n3)n2cc1-c1c(C)noc1C (stereo not drawn) [Compound I-28, 6-(6-(3,5-dimethylisoxazol-4-yl)-7-methoxyimidazo[1,2-a]pyridin-3-yl)-N-(pyrrolidin-3-yl)pyridin-2-amine]
pIC50 (MA9-NRas cells; [2]): 4.83
solubility (physchem): > 60 µg/mL
Stability (rat): 15.7 min

COc1cc2ncc(-c3cccc(NC4CCCNC4)n3)n2cc1-c1cn[nH]c1 (stereo not drawn) [Compound I-29, 6-(7-methoxy-6-(1H-pyrazol-4-yl)imidazo[1,2-a]pyridin-3-yl)-N-(piperidin-3-yl)pyridin-2-amine]
pIC50 (MA9-NRas cells; [1]): 5.03
solubility (physchem): 35.6 µg/mL (≈ 91.4 µM)
Stability (rat): 9.8 min

COc1cc2ncc(-c3cccc(NC4CCNCC4)n3)n2cc1-c1cn[nH]c1 [Compound I-30]
solubility (physchem): 12.3 µg/mL (≈ 31.6 µM)
Stability (rat): 24.7 min

COc1cc2ncc(-c3cccc(N(C)C4CCNC4)n3)n2cc1-c1cn[nH]c1 (stereo not drawn) [Compound I-31, 6-(7-methoxy-6-(1H-pyrazol-4-yl)imidazo[1,2-a]pyridin-3-yl)-N-methyl-N-(pyrrolidin-3-yl)pyridin-2-amine]
pIC50 (MA9-NRas cells; [2]): 4.78
solubility (physchem): 14.1 µg/mL (≈ 36.2 µM)
Stability (rat): 11.5 min

COc1cc2ncc(-c3cccc(OC4CCNC4)n3)n2cc1-c1cn[nH]c1 (stereo not drawn) [Compound I-32, 7-methoxy-6-(1H-pyrazol-4-yl)-3-(6-(pyrrolidin-3-yloxy)pyridin-2-yl)imidazo[1,2-a]pyri-dine]
pIC50 (MA9-NRas cells; [1]): 5.43
solubility (physchem): 8.2 µg/mL (≈ 21.8 µM)
Stability (rat): 7.7 min

COc1cc2ncc(-c3nc(NC4CCNC4)c(F)cc3F)n2cc1-c1cn[nH]c1 (stereo not drawn) [Compound I-33, 3,5-difluoro-6-(7-methoxy-6-(1H-pyrazol-4-yl)imidazo[1,2-a]pyridin-3-yl)-N-(pyrrolidin-3-yl)pyridin-2-amine]
pIC50 (MA9-NRas cells; [1]): 4.53
solubility (physchem): 3.9 µg/mL (≈ 9.48 µM)
Stability (rat): 9.3 min

COc1cc2ncc(-c3cccc(NC4CCNC4)n3)n2cc1OC (stereo not drawn) [Compound I-36]
pIC50 (MA9-NRas cells; [1]): 5.35
solubility (physchem): > 50 µg/mL
Stability (rat): >30.0 min

COc1cc(-c2cn[nH]c2)cn2c(-c3cccc(NC4CCNC4)n3)cnc12 (stereo not drawn) [Compound I-37]
pIC50 (MA9-NRas cells; [1]): 4.78
solubility (physchem): > 55 µg/mL
Stability (rat): 2.3 min

COc1cc2ncc(-c3cccc(NC4CCNC4)n3)n2cc1-c1nnn[nH]1 (stereo not drawn) [Compound I-38]
pIC50 (MA9-NRas cells; [1]): 8.70
solubility (physchem): > 56 µg/mL
Stability (rat): >30.0 min

COc1cc2ncc(-c3cccc(NC4CCNC4)n3)n2cc1C#N (stereo not drawn) [Compound I-39]
pIC50 (MA9-NRas cells; [1]): 5.25
solubility (physchem): 10.6 µg/mL (≈ 31.7 µM)
Stability (rat): 8.8 min

Clc1cn2c(-c3cccc(NC4CCNC4)n3)cnc2cc1OCCN1CCOCC1 (stereo not drawn) [Compound I-40]
pIC50 (MA9-NRas cells; [1]): 6.20
solubility (physchem): > 65 µg/mL
Stability (rat): >30.0 min

c1cc(NC2CCNC2)nc(-c2cnc3cc(OCCN4CCOCC4)c(-c4cn[nH]c4)cn23)c1 (stereo not drawn) [Compound I-41, 6-(7-(2-morpholinoethoxy)-6-(1H-pyrazol-4-yl)imidazo[1,2-a]pyridin-3-yl)-N-(pyrrolidin-3-yl)pyridin-2-amine]
pIC50 (MA9-NRas cells; [1]): 4.75
solubility (physchem): > 70 µg/mL
Stability (rat): >30.0 min

COc1cc(Cl)cn2c(-c3cccc(NC4CNC4)n3)cnc12 [Compound I-42, N-(azetidin-3-yl)-6-(6-chloro-8-methoxyimidazo[1,2-a]pyridin-3-yl)pyridin-2-amine]
pIC50 (MA9-NRas cells; [1]): 4.68
solubility (physchem): > 49 µg/mL
Stability: >30 min

c1cc(N[C@H]2CCNC2)nc(-c2cnc3ccc(-c4cn[nH]c4)cn23)c1 [Compound I-44]
solubility (physchem): 42.6 µg/mL (≈ 123 µM)
Stability: 6.7 min

c1cc(NC2CNC2)nc(-c2cnc3ccc(-c4cn[nH]c4)cn23)c1 [Compound I-45]
pIC50 (MA9-NRas cells; [1]): 5.37
solubility (physchem): > 49 µg/mL

Cn1cc(-c2ccc3ncc(-c4cccc(NC5CNC5)n4)n3c2)cn1 [Compound I-46]
pIC50 (MA9-NRas cells; [1]): 4.78
solubility (physchem): 43.1 µg/mL (≈ 125 µM)
Stability (rat): >30.0 min

Fc1cc(F)c(-c2cnc3ccc(Cl)cn23)nc1NC1CNC1 [Compound I-47]
pIC50 (MA9-NRas cells; [1]): 5.73
solubility (physchem): > 50 µg/mL
Stability (rat): >30.0 min

Cc1ccc(-c2cnc3ccc(Cl)cn23)nc1NC1CNC1 [Compound I-48]
solubility (physchem): > 46 µg/mL
Stability (rat): 11.8 min

Cc1ccc(NC2CNC2)nc1-c1cnc2ccc(Cl)cn12 [Compound I-49]
solubility (physchem): > 46 µg/mL
Stability (rat): 26.2 min

COc1ccn2c(-c3cccc(NC4CNC4)n3)cnc2c1 [Compound I-50, N-(azetidin-3-yl)-6-(7-methoxyimidazo[1,2-a]pyridin-3-yl)pyridin-2-amine]
solubility (physchem): > 44 µg/mL
Stability (rat): >30.0 min

CN(c1cccc(-c2cnc3ccc(Cl)cn23)n1)C1CCNCC1 [Compound I-51]
solubility (physchem): > 50 µg/mL
Stability: 9.0 min

Brc1ccc2ncc(-c3cccc(NC4CNC4)n3)n2c1 [Compound I-52]
solubility (physchem): 41.8 µg/mL (≈ 121 µM)
Stability (rat): 19.8 min

Clc1ccc2ncc(-c3cc(Br)cc(NC4CNC4)n3)n2c1 [Compound I-53]
solubility (physchem): 19.5 µg/mL (≈ 51.5 µM)
Stability (rat): >30.0 min

c1cc(NC2CCNC2)nc(-c2cnc3ccc(-c4cn[nH]c4)cn23)c1 (stereo not drawn) [Compound I-54, 6-(6-(1H-pyrazol-4-yl)imidazo[1,2-a]pyridin-3-yl)-N-(pyrrolidin-3-yl)pyridin-2-amine]
solubility (physchem): > 51 µg/mL
Stability: 7.6 min

Cc1cc(NC2CNC2)nc(-c2cnc3ccc(Cl)cn23)c1 [Compound I-55, N-(azetidin-3-yl)-6-(6-chloroimidazo[1,2-a]pyridin-3-yl)-4-methylpyridin-2-amine]
solubility (physchem): > 46 µg/mL

CC(=O)N1CC(Nc2cccc(-c3cnc4ccc(Cl)cn34)n2)C1 [Compound I-57]
solubility (physchem): > 50 µg/mL
Stability (rat): >30.0 min

O=C(c1ccccc1)N1CC(Nc2cccc(-c3cnc4ccc(Cl)cn34)n2)C1 [Compound I-58]
solubility (physchem): < 1 µg/mL
Stability (rat): 8.0 min

N#CCC(=O)N1CC(Nc2cccc(-c3cnc4ccc(Cl)cn34)n2)C1 [Compound I-59]
solubility (physchem): 18.3 µg/mL (≈ 49.9 µM)
Stability (rat): >30.0 min

N#Cc1ccc2ncc(-c3cccc(NC4CNC4)n3)n2c1 [Compound I-60, 3-(6-(azetidin-3-ylamino)pyridin-2-yl)imidazo[1,2-a]pyridine-6-carbonitrile]
solubility (physchem): > 43 µg/mL
Stability (rat): 16.4 min

Cc1ccn2c(-c3cccc(NC4CNC4)n3)cnc2c1 [Compound I-61, N-(azetidin-3-yl)-6-(7-methylimidazo[1,2-a]pyridin-3-yl)pyridin-2-amine]
solubility (physchem): > 41 µg/mL
Stability (rat): >30.0 min

Clc1cc2ncc(-c3cccc(NC4CNC4)n3)n2cc1Cl [Compound I-62]
solubility (physchem): 41.5 µg/mL (≈ 124 µM)
Stability (rat): >30.0 min

Clc1ccn2c(-c3cccc(NC4CNC4)n3)cnc2c1 [Compound I-63, N-(azetidin-3-yl)-6-(7-chloroimidazo[1,2-a]pyridin-3-yl)pyridin-2-amine]
solubility (physchem): > 44 µg/mL

CCN1CCN(c2ccc3ncc(-c4cccc(NC5CNC5)n4)n3c2)CC1 [Compound I-64]
solubility (physchem): > 56 µg/mL

COc1cc(NC2CNC2)nc(-c2cnc3ccc(Cl)cn23)c1 [Compound I-67, N-(azetidin-3-yl)-6-(6-chloroimidazo[1,2-a]pyridin-3-yl)-4-methoxypyridin-2-amine]
solubility (physchem): > 49 µg/mL
Stability (rat): >30.0 min

C#Cc1cn2c(-c3cccc(NC4CCNC4)n3)cnc2cc1OC (stereo not drawn) [Compound I-68, 6-(6-ethynyl-7-methoxyimidazo[1,2-a]pyridin-3-yl)-N-(pyrrolidin-3-yl)pyridin-2-amine]
solubility (physchem): > 49 µg/mL
Stability (rat): 11.6 min
